Assay results as given in ChEMBL document CHEMBL1201862, “PubChem BioAssay data set” (2004).
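The compound was tested at five concentrations on cells cultured in 96-well plates, with a 48-hour exposure period. Abbreviation: GI50, concentration required for 50% inhibition of growth.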 The source made the active and inactive calls. No stated cut-off is given here; in the data, active = GI50 up to about 1.1 µM and inactive = higher.

Key:
Assay in all cases: NCI anticancer screen, dose series, 48 h
786-0 = system: 786-0
A498 = system: A498
ACHN = system: ACHN
BT-549 = system: BT-549
CAKI-1 = system: CAKI-1
COLO 205 = system: COLO 205
DU-145 = system: DU-145
EKVX = system: EKVX
HCC 2998 = system: HCC 2998
HCT-116 = system: HCT-116
HCT-15 = system: HCT-15
HL-60 = system: HL-60
HOP-62 = system: HOP-62
HT-29 = system: HT-29
Hs-578T = system: Hs-578T
IGROV-1 = system: IGROV-1
K562 = system: K562
KM12 = system: KM12
LOX IMVI = system: LOX IMVI
MCF7 = system: MCF7
MDA-MB-231 = system: MDA-MB-231
MDA-MB-435 = system: MDA-MB-435
MDA-N = system: MDA-N
MOLT-4 = system: MOLT-4
Malme-3M = system: Malme-3M
NCI-H226 = system: NCI-H226
NCI-H23 = system: NCI-H23
NCI-H460 = system: NCI-H460
NCI-H522 = system: NCI-H522
NCI/ADR-RES = system: NCI/ADR-RES
OVCAR-3 = system: OVCAR-3
OVCAR-4 = system: OVCAR-4
OVCAR-5 = system: OVCAR-5
OVCAR-8 = system: OVCAR-8
PC-3 = system: PC-3
RPMI-8226 = system: RPMI-8226
RXF 393 = system: RXF 393
SF-268 = system: SF-268
SF-295 = system: SF-295
SK-MEL-28 = system: SK-MEL-28
SK-MEL-2 = system: SK-MEL-2
SK-MEL-5 = system: SK-MEL-5
SN12C = system: SN12C
SNB-19 = system: SNB-19
SNB-75 = system: SNB-75
SR = system: SR
SW-620 = system: SW-620
T47D = system: T47D
TK-10 = system: TK-10
U-251 = system: U-251
UACC-257 = system: UACC-257
UACC-62 = system: UACC-62
UO-31 = system: UO-31
A549 = system: A549
CCRF-CEM = system: CCRF-CEM
HOP-92 = system: HOP-92
M14 = system: M14
SK-OV-3 = system: SK-OV-3
SF-539 = system: SF-539

Cc1cccc(-n2c(C)nc3ccc(NC(=S)Nc4ccccc4)cc3c2=O)c1
GI50 (786-0): > 100 µM (inactive) | GI50 (A498): > 100 µM (inactive) | GI50 (ACHN): 53.5 µM (inactive) | GI50 (BT-549): 48.5 µM (inactive) | GI50 (CAKI-1): > 100 µM (inactive) | GI50 (COLO 205): 30.6 µM (inactive) | GI50 (DU-145): 87.7 µM (inactive) | GI50 (EKVX): 55.7 µM (inactive) | GI50 (HCC 2998): 25 µM (inactive) | GI50 (HCT-116): 46.5 µM (inactive) | GI50 (HCT-15): 68.5 µM | GI50 (HL-60): 37.4 µM (inactive) | GI50 (HOP-62): > 100 µM (inactive) | GI50 (HT-29): 51.9 µM (inactive) | GI50 (Hs-578T): > 100 µM (inactive) | GI50 (IGROV-1): > 100 µM (inactive) | GI50 (K562): 50.1 µM (inactive) | GI50 (KM12): 57.3 µM (inactive) | GI50 (LOX IMVI): 37.2 µM (inactive) | GI50 (MCF7): 67 µM (inactive) | GI50 (MDA-MB-231): 70.1 µM (inactive) | GI50 (MDA-MB-435): 56 µM (inactive) | GI50 (MDA-N): 55.6 µM (inactive) | GI50 (MOLT-4): 28.4 µM (inactive) | GI50 (Malme-3M): 69.2 µM (inactive) | GI50 (NCI-H226): 81.1 µM (inactive) | GI50 (NCI-H23): 64.9 µM (inactive) | GI50 (NCI-H460): 11 µM (inactive) | GI50 (NCI-H522): 51.2 µM (inactive) | GI50 (NCI/ADR-RES): 84.1 µM (inactive) | GI50 (OVCAR-3): 32.4 µM (inactive) | GI50 (OVCAR-4): 60.8 µM (inactive) | GI50 (OVCAR-5): > 100 µM (inactive) | GI50 (OVCAR-8): 74.3 µM (inactive) | GI50 (PC-3): 41.6 µM (inactive) | GI50 (RPMI-8226): 35.2 µM (inactive) | GI50 (RXF 393): 62.4 µM (inactive) | GI50 (SF-268): 66.5 µM (inactive) | GI50 (SF-295): > 100 µM (inactive) | GI50 (SK-MEL-28): > 100 µM (inactive) | GI50 (SK-MEL-2): 39 µM (inactive) | GI50 (SK-MEL-5): 18.2 µM (inactive) | GI50 (SN12C): > 100 µM (inactive) | GI50 (SNB-19): > 100 µM (inactive) | GI50 (SNB-75): > 100 µM (inactive) | GI50 (SR): > 100 µM (inactive) | GI50 (SW-620): > 100 µM (inactive) | GI50 (T47D): 38 µM (inactive) | GI50 (TK-10): > 100 µM (inactive) | GI50 (U-251): > 100 µM (inactive) | GI50 (UACC-257): 47.6 µM (inactive) | GI50 (UACC-62): 50.1 µM (inactive) | GI50 (UO-31): 47.4 µM (inactive)

CC(=O)OC(C#N)CC(C)(C)/[N+]([O-])=[N+](\[O-])C(C)(C)CC(C#N)OC(C)=O (centres undefined)
GI50 (786-0): 10.6 µM (inactive) | GI50 (A498): 44.6 µM (inactive) | GI50 (A549): 30.1 µM (inactive) | GI50 (ACHN): 12.1 µM (inactive) | GI50 (BT-549): 14.8 µM (inactive) | GI50 (CAKI-1): 15 µM (inactive) | GI50 (CCRF-CEM): 1.73 µM (inactive) | GI50 (COLO 205): 15.7 µM (inactive) | GI50 (DU-145): 18 µM (inactive) | GI50 (EKVX): 16.7 µM (inactive) | GI50 (HCC 2998): 16.1 µM (inactive) | GI50 (HCT-116): 6.7 µM (inactive) | GI50 (HCT-15): 10.6 µM | GI50 (HOP-62): 17.8 µM (inactive) | GI50 (HOP-92): 12.3 µM (inactive) | GI50 (HT-29): 18.4 µM (inactive) | GI50 (Hs-578T): 17.3 µM (inactive) | GI50 (IGROV-1): 10.8 µM (inactive) | GI50 (K562): 3.77 µM (inactive) | GI50 (KM12): 14.5 µM (inactive) | GI50 (LOX IMVI): 11.1 µM (inactive) | GI50 (M14): 14.4 µM (inactive) | GI50 (MCF7): 8.83 µM (inactive) | GI50 (MDA-MB-231): 14.7 µM (inactive) | GI50 (MDA-MB-435): 16.1 µM (inactive) | GI50 (MDA-N): 14.3 µM (inactive) | GI50 (MOLT-4): 3.24 µM (inactive) | GI50 (Malme-3M): 18.5 µM (inactive) | GI50 (NCI-H226): 20.7 µM (inactive) | GI50 (NCI-H23): 17 µM (inactive) | GI50 (NCI-H460): 18 µM (inactive) | GI50 (NCI-H522): 8.47 µM (inactive) | GI50 (NCI/ADR-RES): 22.4 µM (inactive) | GI50 (OVCAR-3): 16.6 µM (inactive) | GI50 (OVCAR-4): 17.6 µM (inactive) | GI50 (OVCAR-5): 23 µM (inactive) | GI50 (OVCAR-8): 16.1 µM (inactive) | GI50 (PC-3): 15.3 µM (inactive) | GI50 (RPMI-8226): 15.8 µM (inactive) | GI50 (RXF 393): 12.8 µM (inactive) | GI50 (SF-268): 10.8 µM (inactive) | GI50 (SF-295): 38.3 µM (inactive) | GI50 (SK-MEL-28): 26 µM (inactive) | GI50 (SK-MEL-2): 24.3 µM (inactive) | GI50 (SK-MEL-5): 16.1 µM (inactive) | GI50 (SK-OV-3): > 100 µM (inactive) | GI50 (SN12C): 12.9 µM (inactive) | GI50 (SNB-19): 23.1 µM (inactive) | GI50 (SNB-75): 15.1 µM (inactive) | GI50 (SR): 2.41 µM (inactive) | GI50 (SW-620): 5.47 µM (inactive) | GI50 (T47D): 15.5 µM (inactive) | GI50 (TK-10): 15.9 µM (inactive) | GI50 (U-251): 15.8 µM (inactive) | GI50 (UACC-257): 16.9 µM (inactive) | GI50 (UACC-62): 16.7 µM (inactive) | GI50 (UO-31): 19.5 µM (inactive)

COCc1nc(C#N)c(N)o1
GI50 (786-0): > 10 µM (inactive) | GI50 (A549): > 10 µM (inactive) | GI50 (ACHN): > 10 µM (inactive) | GI50 (BT-549): > 10 µM (inactive) | GI50 (CAKI-1): > 10 µM (inactive) | GI50 (CCRF-CEM): > 10 µM (inactive) | GI50 (COLO 205): > 10 µM (inactive) | GI50 (DU-145): > 10 µM (inactive) | GI50 (EKVX): > 10 µM (inactive) | GI50 (HCC 2998): > 10 µM (inactive) | GI50 (HCT-116): > 10 µM (inactive) | GI50 (HCT-15): > 10 µM | GI50 (HL-60): > 10 µM (inactive) | GI50 (HOP-62): > 10 µM (inactive) | GI50 (HOP-92): > 10 µM (inactive) | GI50 (HT-29): > 10 µM (inactive) | GI50 (Hs-578T): > 10 µM (inactive) | GI50 (IGROV-1): > 10 µM (inactive) | GI50 (K562): > 10 µM (inactive) | GI50 (KM12): > 10 µM (inactive) | GI50 (LOX IMVI): > 10 µM (inactive) | GI50 (M14): > 10 µM (inactive) | GI50 (MCF7): > 10 µM (inactive) | GI50 (MDA-MB-231): > 10 µM (inactive) | GI50 (MDA-MB-435): > 10 µM (inactive) | GI50 (MDA-N): > 10 µM (inactive) | GI50 (MOLT-4): > 10 µM (inactive) | GI50 (Malme-3M): > 10 µM (inactive) | GI50 (NCI-H226): > 10 µM (inactive) | GI50 (NCI-H23): > 10 µM (inactive) | GI50 (NCI-H460): > 10 µM (inactive) | GI50 (NCI-H522): > 10 µM (inactive) | GI50 (NCI/ADR-RES): > 10 µM (inactive) | GI50 (OVCAR-4): > 10 µM (inactive) | GI50 (OVCAR-8): > 10 µM (inactive) | GI50 (PC-3): > 10 µM (inactive) | GI50 (RPMI-8226): > 10 µM (inactive) | GI50 (RXF 393): > 10 µM (inactive) | GI50 (SF-268): > 10 µM (inactive) | GI50 (SF-295): > 10 µM (inactive) | GI50 (SF-539): > 10 µM (inactive) | GI50 (SK-MEL-28): > 10 µM (inactive) | GI50 (SK-MEL-5): > 10 µM (inactive) | GI50 (SK-OV-3): > 10 µM (inactive) | GI50 (SN12C): > 10 µM (inactive) | GI50 (SNB-19): > 10 µM (inactive) | GI50 (SNB-75): > 10 µM (inactive) | GI50 (SR): > 10 µM (inactive) | GI50 (SW-620): > 10 µM (inactive) | GI50 (T47D): > 10 µM (inactive) | GI50 (TK-10): > 10 µM (inactive) | GI50 (UACC-257): > 10 µM (inactive) | GI50 (UACC-62): > 10 µM (inactive) | GI50 (UO-31): > 10 µM (inactive)
